In patent US20100144722A1, “NOVEL HETEROCYCLIC COMPOUNDS AS GATA MODULATORS” (Dr. Reddy's Laboratories Ltd., priority 2008, published 2010):

Test system: GATA1
Experiment: GATA Assay (GATA luciferase reporter in transfected HepG2 cells)
Type: cell-based, Human
Conditions: HepG2 cells transfected with GATA Translucent Reporter Vector, luciferase normalized to total protein
Procedure: Human HepG2 (ATCC) cells were grown in Eagle's Minimum Essential Media (MEM) containing 10% heat inactivated Fetal Bovine Serum (FBS) (Invitrogen) and 5 mL Penicillin-Streptomycin (Invitrogen) in T75 flasks (Corning) in a 37° C./5% CO2 tissue culture incubator (Thermo Electron Corporation) prior to the study. 96-well plates (Corning) were seeded in MEM containing 10% FBS to yield ˜50% confluency. The following day, cells were transfected using FuGENE 6 transfection reagent (Roche) and […] GATA Translucent Reporter Vector (Panomics) according the manufacturer's (Roche) protocol and incubated for about 10-19 h. The next day, the cells were treated with equal volumes of vehicle, dimethyl sulfoxide (DMSO) (Hybri-Max Sterile Filtered Sigma Aldrich) or compounds of formula (I) (in DMSO) diluted in MEM containing 1% FBS. The treated cells were incubated about 8-19 h. The next day the treatment media was removed and the cells were lysed and assayed for luciferase activity using the luciferase assay system (Promega) and using the Envision plate reader (Perkin Elmer). The lysates were also used to measure total protein content with the MicroBCA protein assay kit (Pierce) using the Multiskan Ascent plate reader at 570 nm. Luciferase values were normalized to total protein and fold induction was calculated.
Compounds that show an increase of ≧40% in luciferase levels at ≦20 μm concentration were considered as GATA activators.

Row | SMILES | GATA1 Activation (Fold Change Vs Control) (5μ compound) [Fold] | GATA1 Activation (Fold Change Vs Control) (10μ compound) [Fold]
1 | CC(C)Oc1cc(-c2ccccc2)nc(Nc2ccc(C3(C(=O)O)CCC3)cc2)n1 [Example 68, 1-[4-(4-isopropoxy-6-phenyl-pyrimidin-2-ylamino)-phenyl]-cyclobutane-carboxylic acid] | 2.57 | 2.44
2 | O=C(O)C1(c2ccc(Nc3nc(NC4CCCC4)cc(C4CCCC4)n3)cc2)CCC1 [Example 25, 1-[4-(4-cyclopentyl-6-cyclopentylamino-pyrimidin-2-ylamino)-phenyl]-cyclobutanecarboxylic acid] | 3.69 | 3.32
3 | CC(C)(C)Nc1nc(Nc2ccc(C3(C(=O)O)CCC3)cc2)cc(-c2ccccc2)n1 [Example 55, 1-[4-(2-tert-butylamino-6-phenyl-pyrimidin-4-ylamino)-phenyl]-cyclobutane-carboxylic acid] | 2.86 | 2.40
4 | Cc1noc(C)c1-c1cc(N2CCOCC2)nc(Nc2ccc(C3(C(=O)O)CCC3)cc2)n1 [Example 30, 1-{4-[4-(3,5-dimethyl-isoxazol-4-yl)-6-morpholin-4-yl-pyrimidin-2-ylamino]-phenyl}-cyclobutanecarboxylic acid] | 1.64 | 1.74
5 | O=C(O)C1(c2ccc(Nc3nc(NC4CCCC4)cc(-c4ccccc4)n3)cc2)CCC1 [Example 16, 1-[4-(4-cyclopentylamino-6-phenyl-pyrimidin-2-ylamino)-phenyl]-cyclobutane-carboxylic acid] | 2.44 | 2.13
